“Also recorded” adds a separate entry of the source.
How the values were obtained:
beagle dogs = assay: Cardiovascular effect in conscious telemetered beagle dogs (GLP); format: in vivo, dog; conditions: oral, 30, 90, 150 mg/kg
Procedure: The effects of SRP-001 on hERG current amplitude at physiologic temperatures were evaluated over a nominal concentration range of 0.1 μM to […]. A vehicle group (10% DMSO) was included in the study for comparison, and dofetilide (10 nM) was used as a reference substance. The vehicle and positive controls indicated appropriate sensitivity of the test systems. […] Next, the potential acute effects of oral SRP-001 on cardiovascular function in conscious telemetered beagle dogs was done using a Latin Square design; 4 male naïve beagle dogs each received vehicle (10% DMSO: 10% labrasol: 80% PEG400) and three doses (30, 90, and 150 mg/kg) of SRP-001 nanosuspension by oral gavage. […] A single dose was administered on the day of dosing, and a washout period of seven days was allowed between doses. One-min means of hemodynamic parameters, as well as ECG parameters and body temperature, were measured for a period of at least 24 h. One-min tracings of the ECGs were obtained at 15 min prior to dosing and at 30 min, 1, 2, 4, 8, 12, and 24 h post-dose. Qualitative evaluation of the ECGs was done by a board-certified veterinary cardiologist.

male Sprague–Dawley rats = assay: Neuropharmacological profile, modified Irwin/Functional Observational Battery (GLP); format: in vivo; conditions: for Body temperature versus vehicle: 1 h post-dose
Procedure: Any potential neuropharmacological effects of orally administered SRP-001 in rats were assessed in three groups of eight male Sprague–Dawley rats. Each was orally administered SRP-001 at a single dose of 220, 440, or 660 mg/kg. Vehicle (10% labrasol: 10% DMSO: 80% PEG400) was administered to an additional group of eight rats. The dose volume was 10 mL/kg. […] All observations were made at ± 5 min for the observations through 1 h post-dose and ± 15 min for the later observations. Body temperature was measured 1 h following dose administration.

[1] = tested on: Salmonella typhimurium strains TA98, TA100, TA1535, TA1537, and E. coli WP2 uvrA; assay: Ames bacterial reverse mutation assay; format: cell-based, Escherichia coli
Procedure: SRP-001 was tested to evaluate its mutagenic potential by measuring its ability to induce reverse mutations at selected loci of several strains of Salmonella typhimurium (S. typhimurium) and at the tryptophan locus of Escherichia coli (E. coli) strain WP2 uvrA in the presence and absence of an exogenous metabolic activation system (Bioreliance, Rockville, MD USA). Dimethyl sulfoxide (10% DMSO) was used as the vehicle. The dose levels tested in the preliminary toxicity assay were 6.67, 10.0, 33.3, 66.7, 100, 333, 667, 1000, 3333, and 5000 µg per plate. No precipitate was observed. […] The dose levels tested in the mutagenicity assay were 100, 333, 667, 1000, 3333, and 5000 µg per plate.

[2] = tested on: Peripheral blood reticulocytes; assay: In vivo mammalian micronucleus assay; design: species or system rats
Procedure: Male rats were dosed at 500, 1000, and 2000 mg/kg/d once per day on two consecutive days at 10 mL/kg via oral gavage using 10% labrasol, 10% DMSO, and 80% PEG400 as the vehicle (Bioreliance, Rockville, MD USA). Approximately 48 h after the second dose administration, peripheral blood was collected for flow cytometric analysis of micronuclei. There was no significant increase in the incidence of micronuclei in the test article-dosed animals compared to the concurrent vehicle control. The vehicle control value was compatible with the historical range of % micronucleated reticulocytes (MnRETs). There was a statistically significant increase in MnRETs in the positive control compared to the concurrent vehicle control.

[3] = 7-day repeat-dose oral toxicity and toxicokinetic study, Phase II (non-GLP); format: in vivo; conditions: both sexes, Beagle, dog, in vivo, 300 mg/kg/day, 30, 100, 300 mg/kg/d, days 1 and 7
Procedure: In Phase II of this study, 0, 30, 100, or 300 mg/kg/d of SRP-001 was administered once daily for seven consecutive days to 1 Beagle dog/sex/dose (Calvert Labs/Altasciences, Scott Township, PA USA). Mortality/morbidity was observed twice daily and once prior to scheduled sacrifice. Clinical observations were evaluated prior to each dose administration and at approximately 1–3 h post-dose and once prior to scheduled sacrifice on day 8. Body weights were recorded on days 1 and 7, and a fasted body weight was recorded prior to scheduled sacrifice on day 8. Food consumption was recorded daily. Blood for evaluation of hematology, coagulation, and clinical chemistry parameters and urine for urinalysis was collected from all animals prior to treatment initiation and from all Phase II animals prior to scheduled sacrifice on day 8. Blood for toxicokinetic evaluation was collected at selected time points on days 1 and 7. Selected tissues were harvested and weighed at necropsy. No microscopic evaluations were performed. […] The clinical observations corroborated with findings of red discoloration in the duodenum of the control group female, the jejunum of the low-dose male, and the colon of both high-dose dogs.
The reason for this is unclear; however, it may be due to a low sample size (n = 2 per dose group). Half-lives ranged from approximately 1 to 3.5 h and increased with dose and time. […] Based on these observations, SRP-001 was considered to be tolerated at 300 mg/kg when administered once daily for 7 consecutive days. Our toxicokinetic analysis indicates elevated systemic exposures to SRP-001 on Day 1 relative to Day 7. […] A plausible mechanistic explanation for this observed decrease is the induction of metabolic enzymes, likely involving UGT and potentially CYP3A enzymes, as elaborated above and substantiated by previous research. […] The NOAEL exposure parameters align well with the highest SAD dose in the Phase 1 trial, reinforcing the drug's safety profile. The observed PK decrease is not attributed to emesis but likely to enzymatic induction and will be the subject for future investigation.

[4] = Toxicokinetics following IV & PO dosing; format: in vivo, dog; conditions: beagle dogs
Source text: Supplementary Fig. 19. Toxicokinetic (TK) beagle dog data.

dog = assay: Maximum tolerated dose study, single dose (non-GLP); format: in vivo
Procedure: To determine the appropriate doses, maximum tolerated dose studies (non-GLP) were conducted prior to the definitive GLP systemic toxicity studies. SRP-001 was evaluated by a full battery of GLP-compliant toxicity studies. Systemic toxicity was evaluated in Sprague–Dawley rats and Beagle dogs by oral administration over 28 days (Supplementary Fig. 19 and Supplementary Table 2). Importantly, no treatment-related adverse effects were seen during 28 days of daily oral doses of SRP-001 in rats at doses up to 1500 mg/kg/day or in dogs at doses up to 330 mg/kg/day.

[5] = tested on: FAAH, CORO2A, and RPL7L1 expression; assay: Single-cell RNA sequencing of midbrain PAG in the CFA model; format: in vivo; conditions: 100 mg/kg, 1 h, CFA rats
Procedure: Subsequently, we endeavored to explore the single-cell transcriptome of the eVF rat mid-brain PAG region to further define the mechanisms of action (MOA) of chronic inflammatory pain and, ultimately, SRP-001- and ApAP-mediated pain modulation. Left hind paws of Sprague Dawley rats were injected with 150 µl of 50% complete Freund’s adjuvant (CFA), freshly diluted with sterile saline on the day of administration, to induce conspicuous long-standing inflammatory pain in the rats’ hind paws, along with mechanical hyperalgesia tested using eVF.to induce local inflammation and a chronic pain state. We dosed the rats with ApAP or SRP-001 (100 mg/kg), and after 1 h, they were euthanized to dissect the PAG from flash-frozen brains for 10xGenomics single-nuclei RNA library preparation (Fig. 4a).
For cell nuclei isolation from the midbrain PAG, they were flash-frozen, dissected (by a cryotome), minced into small pieces, homogenized, filtered through 70 μ strainer and centrifuged. ReadiDrop 7-AAD cell viability dye (Bio-Rad) added, and flow sorted the live (7-AAD positive) nuclei in a BioRad Cell Sorter S3e using purity mode. Nuclei were counted using Nexcelom automated Cellometer with acridine orange/propidium iodide (AOPI) stain, and the Nuclei Stock Concentration used so that 10,000 nuclei could be targeted for each sample. […]

SMILES: CCN(CC)C(=O)c1ccccc1S(=O)(=O)NCC(=O)Nc1ccc(O)cc1 [SRP-001, N,N-diethyl-2-[[2-(4-hydroxyanilino)-2-oxo-ethyl]sulfamoyl]benzamide]
- Cardiovascular findings (blood pressure, heart rate, ECG, body temperature) (beagle dogs): did not induce any biologically relevant effects; also recorded: No significant findings
- Body temperature versus vehicle (male Sprague–Dawley rats; 220 or 440 mg/kg): not affected
- Body temperature versus vehicle (male Sprague–Dawley rats; high-dose group (660 mg/kg)): significantly (p ≤ 0.05) lower; also recorded: lower body temperature; also recorded: Decreased body temp
- Neuropharmacological or clinical signs (male Sprague–Dawley rats; oral, 220, 440, 660 mg/kg, through 24 h post-dose): No apparent neuropharmacological or clinical signs; also recorded: No apparent neuropharmacological effects
- Dose with toxicity (reduction in the revertant count) ([1]; preliminary toxicity assay, tester strains TA1537 and WP2 uvrA, absence of S9): 5000 µg per plate
- Mutagenic response (reverse mutations) ([1]; up to 5000 µg per plate, presence or absence of S9 activation): negative; also recorded: No positive mutagenic responses; also recorded: No positive mutagenic responses were observed with any of the tester strains in either the presence or absence of S9 activation
- Micronucleus assay result ([2]; 500, 1000, 2000 mg/kg/day, 2 days, oral gavage): negative (non-clastogenic); also recorded: Under the conditions of this study, the administration of SRP-001 at doses up to and including a dose of 2000 mg/kg/day was concluded to be negative in the Micronucleus assay
- % RETs (reticulocytes) ([2]; treatment groups versus vehicle): Statistically significant decreases
- Tmax [3]: 0.5 to 1.5 h
- half-life ([3]; read-out: Half-lives): 1 to 3.5 h
- Exposure versus dose [4]: dose-dependent response
- Time of Cmax [4]: 15 to 30 min
- Single doses that did not result in any mortality (dog): ≤ 1200 mg/kg
- Expression of FAAH, CORO2A, and RPL7L1 in PAG (scRNAseq) [5]: Downregulation

Reference: publication PMC11096368, “Transcriptomic signature, bioactivity and safety of a non-hepatotoxic analgesic generating AM404 in the midbrain PAG region” (Scientific Reports, 2024)
